Legend:
GST-hRIPK1 (8-327) [1] = target: T1, GST-hRIPK1 (8-327) (Homo sapiens (Human), UniProt Q13546); test: ADP-Glo kinase assay; format: biochemical
Experimental: GST-hRIPK1 (8-327) enzyme was generated by Proteros GmbH by Baculovirus expression system.
Test compounds were diluted in DMSO and 0.1 μL of solution was dispensed to each well of a 384-well white solid microplate. The assay buffer was 50 mM HEPES pH 7.5, 50 mM NaCl, 30 mM MgCl2. The buffer was supplemented with 0.02% CHAPS, 0.01% of Pluronic F127, 0.1 mg/mL BSA and 1 mM DTT. MnCl2, 5 mM, was included in the assay buffer on the day of the experiment. The enzymatic reaction comprised 1.5 μg/mL GST-hRIPK1 (8-327) and 50 μM ATP for receptor interacting protein kinase 1 and 15 μM ATP. 5 μL of enzyme and 5 μL of ATP were added to the plate at twice the final assay concentration and incubated at room temperature for 3 hours. Following this reaction, 10 μL of ADP-Glo reagent (Promega) was added to each well and incubated for 40 min at room temperature. This stops the kinase reaction and depletes any remaining ATP. 20 μL of ADP-Glo detection reagent was then added to each well and incubated at room temperature for at least 15 minutes. The detection reagent converts ADP to ATP and introduces luciferase and luciferin to detect ATP. The luminescence is then measured with the Envision (PerkinElmer) plate reader. Test compound inhibition was expressed as percent inhibition of internal assay controls. For concentration response curves, normalized data is fit and IC50 determined using XL-fit (IDBS) for Excel. The IC50 were averaged to determine a mean value, for a minimum of two independent experiments.
Test compound inhibition was expressed as percent inhibition of internal assay controls. For concentration response curves, normalized data is fit and IC50 determined using XL-fit (IDBS) for Excel. The IC50 were averaged to determine a mean value, for a minimum of two independent experiments.

[2] = test system: human cryopreserved hepatocytes; test: Metabolic stability (hepatocytes); details: human cryopreserved hepatocytes
Experimental: The metabolic stability of compounds was evaluated in human cryopreserved hepatocytes (BioreclamationlVT, NY, USA) in duplicate. Test articles (or controls) were added to a 24-well incubation plate (Becton Dickinson Labware, USA) containing 0.5×10^6 hepatocytes/mL in suspension. The plate was held at 37° C. and agitated with constant orbital shaking (orbital speed at 350 rpm). At each time point (0, 5, 10, 15, 20, 30, 45, 60, 90, 120, 150 and 180 min) a Tecan Evo robot aspirated 50 μL of the incubation mixture and 100 μL of acetonitrile containing internal standard to quench the reaction. […] Samples were centrifuged (3000 rpm for 10 minutes) and the plate sealed prior to injection onto an LC-MS/MS system.
The appropriate parent/daughter ions were monitored for the test article and IS with the LC-MS/MS system. The intrinsic clearance (Clint; expressed μL/min/million cells) was determined from the first order elimination constant (k, min^−1) of test article decay and the volume of the incubation. […] The intrinsic organ CL was then converted to the hepatic clearance (CLhep) using the well-stirred model as shown below, where Qh is human hepatic blood flow.
Hepatic clearance is expressed as mL/min/kg. The hepatic clearance relates to the flow of blood through the liver that is completely cleared of the compound.

GST-hRIPK1 (8-327) [3] = target: T1, GST-hRIPK1 (8-327); test: Fluorescent Polarization Binding (FP Binding) assay
P-gp (MDR1) = test: MDCKII-MDR1 permeability, efflux ratio; format: in vitro ADME; details: dog, MDCK-MDR1, pH 7.4, MDCKII-MDR1, 3 μM, read-out: ER MDR1
Experimental: The blood brain barrier (BBB) separates circulating blood from the extracellular fluid of the central nervous system (CNS). The passive membrane permeability (Papp) and the P-gp (P-glycoprotein) substrate efflux potential were determined using the MDCKII-MDR1 cell line as an in vitro model of the effective permeability of a compound through the BBB. A bidirectional assay (Apical to Basolateral (A→B) and Basolateral to Apical (B→A)), in the absence and in the presence of GF120918 (a P-gp inhibitor) was conducted using pre-plated MDCKII-MDR1 cells (Corning HTS Transwell-96) obtained from SOLVO Biotechnology. The assay was run at 3 μM for 90 min (minutes) in triplicate using a HBSS+12.5 mM HEPES pH 7.4 transport buffer. Following incubation of samples from donor and receiver, wells were removed and measured by LC-MS/MS. Samples were extracted by protein precipitation with acetonitrile containing an appropriate internal standard (IS) having a known mass and molecular weight. The precipitate was centrifuged for 10 min at 3000 rpm (revolutions per minute). The supernatants were then collected, diluted if necessary, and injected on to the LC-MS/MS system. […] Papp (apparent permeability expressed in nm/sec [nanometer/second]) values were calculated according to the following equation: […]
Where dQ/dt is the permeability rate, C0 is the initial concentration in the donor solution (expressed as IS ratio), A and B are the surface areas of the filter (the surface area of the cell monolayer).
Monolayer efflux ratios (ER) were derived using the following equation: […]

[4] = male, Sprague-Dawley Crl:CD(SD), in vivo, iv
Experimental: (§1) The protein binding in plasma was determined using a Rapid Equilibrium Dialysis Device (Thermo Scientific RED Device) or 96-well dialyzer apparatus (HTDialysis LLC). […] If required, plasma samples were pre-incubated (2 hours at 37° C.) with diisopropyl fluorophosphate (DFP) at the final concentration of 100 μM to prevent compound degradation due to amide hydrolysis. Appropriate volumes of spiked samples along with blank phosphate buffer were added to either device and incubated at 37° C. for a total of 5 hours with agitation at 500 rpm. Following incubation, an equal aliquot of dialysed matrix (plasma or buffer) is added to an equal volume of the opposite blank matrix such that the volume of buffer to plasma are equal. Mixed matrix samples were extracted by protein precipitation using acetonitrile containing the appropriate IS. Samples were then centrifuged for 10 min at 2800 rpm. Supernatants were collected and diluted and then injected on to an HPLC-MS/MS or UPLC-MS/MS system. Samples were analyzed by monitoring the appropriate parent/daughter ion transitions for the test and control compounds. The peak area ratios were used to measure test item concentrations. The fraction unbound (Afu) was determined as the ratio of the peak area ratio in buffer divided by the peak area ratio in plasma.
(§2) The PK properties of test articles were determined in male Sprague-Dawley Crl:CD(SD) rats, male Beagle dogs and male cynomolgus monkeys. Studies were conducted to the highest standards of animal welfare in accordance with national legislation and under approval of the internal animal care and use committees.
(§3) Compounds were administered by IV bolus to animals following an overnight fast. […] The formulations were administered at dose volumes ranging from 0.5-2 mL/kg. The IV dose ranged from 0.5-1 mg/kg.
(§4) Following dose administration, 8-9 serial blood samples were collected over 24 hours. Samples were mixed with anticoagulant and placed on wet ice prior to processing. Plasma was harvested following centrifugation, extracted using protein precipitation with acetonitrile containing IS. The processed supernatant was analyzed using UPLC or LC-MS/MS using specific parent/daughter ion pairs for the test article and IS. Plasma concentrations were determined using a calibration curve prepared using known concentrations of analyte. Pharmacokinetic parameters utilizing measured concentrations were calculated using Phoenix WinNonlin. The unbound plasma clearance was calculated as the ratio of the total body clearance divided by the fraction unbound in plasma.

[5] = male, cynomolgus monkey, in vivo, iv
Experimental: as §1, §2, §3, §4

T1 sequence (Q13546 8-327): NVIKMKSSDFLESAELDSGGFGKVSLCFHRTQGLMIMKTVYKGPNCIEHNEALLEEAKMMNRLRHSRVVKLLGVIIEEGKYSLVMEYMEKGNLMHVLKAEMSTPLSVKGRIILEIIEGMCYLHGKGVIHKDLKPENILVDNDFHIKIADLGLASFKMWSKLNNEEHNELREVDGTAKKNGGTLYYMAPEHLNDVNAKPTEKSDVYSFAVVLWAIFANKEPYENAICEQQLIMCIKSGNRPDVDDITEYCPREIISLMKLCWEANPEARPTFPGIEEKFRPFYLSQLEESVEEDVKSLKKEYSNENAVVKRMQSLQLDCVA

Compound	IC50 (GST-hRIPK1 (8-327) [1]) [nM]	Human hepatocyte CLhep Avg [2] [mL/min/kg]	IC50 (GST-hRIPK1 (8-327) [3]) [nM]	efflux ratio at 90 min, 3 μM (P-gp (MDR1))	Rat unbound CL [4] [mL/min/kg]	Cyno unbound CL [5] [mL/min/kg]
CN1C(=O)[C@@H](NCC(=O)NCc2ccccc2)COc2ccccc21 [Example 18, (S)—N-benzyl-2-((5-methyl-4-oxo-2,3,4,5-tetrahydrobenzo[b][1,4]oxazepin-3-yl)amino)acetamide]	> 10000	–	–	–	–	–
CCN1C(=O)[C@@H](NC(=O)c2cc(Cc3ccccc3)on2)COc2ccccc21 [Example 19, (S)-5-benzyl-N-(5-ethyl-4-oxo-2,3,4,5-tetrahydrobenzo[b][1,4]oxazepin-3-yl)isoxazole-3-carboxamide]	1000 to 10000	–	–	–	–	–
CN1CC(NC(=O)c2nnc(Cc3ccccc3)[nH]2)CCc2ccccc21 (stereo not drawn) [Example 20, 5-benzyl-N-(1-methyl-2,3,4,5-tetrahydro-1H-benzo[b]azepin-3-yl)-4H-1,2,4-triazole-3-carboxamide]	1000 to 10000	–	–	–	–	–
O=C(N[C@H]1COC[C@H]2CCCN2C1=O)c1cc(Cc2ccccc2)on1 [Example 21, 5-benzyl-N-((4S,9aR)-5-oxohexahydro-1H,3H-pyrrolo[2,1-c][1,4]oxazepin-4-yl)isoxazole-3-carboxamide]	> 10000	–	–	–	–	–
O=C(N[C@H]1COC[C@@H]2CCCN2C1=O)c1cc(Cc2ccccc2)on1 [Example 22, 5-benzyl-N-((4S,9aS)-5-oxohexahydro-1H,3H-pyrrolo[2,1-c][1,4]oxazepin-4-yl)isoxazole-3-carboxamide]	> 10000	–	–	–	–	–
CN1CCCC[C@H](NC(=O)c2nnc(Cc3ccccc3)[nH]2)C1=O [Example 23, (S)-5-benzyl-N-(1-methyl-2-oxoazepan-3-yl)-4H-1,2,4-triazole-3-carboxamide]	> 10000	–	–	–	–	–
CN1C(=O)[C@@H](NC(=O)c2ccc(C#N)n2C)COc2ccccc21 [Example 24, (S)-5-cyano-1-methyl-N-(5-methyl-4-oxo-2,3,4,5-tetrahydrobenzo[b][1,4]oxazepin-3-yl)-1H-pyrrole-2-carboxamide]	> 10000	–	–	–	–	–
Cc1nnc(C(=O)N[C@H]2COc3ccccc3N(C)C2=O)[nH]1 [Example 25, (S)-5-methyl-N-(5-methyl-4-oxo-2,3,4,5-tetrahydrobenzo[b][1,4]oxazepin-3-yl)-4H-1,2,4-triazole-3-carboxamide]	> 10000	–	–	–	–	–
CC(=O)N[C@H]1COc2ccccc2N(C)C1=O [Example 26, (S)—N-(5-methyl-4-oxo-2,3,4,5-tetrahydrobenzo[b][1,4]oxazepin-3-yl)acetamide]	> 10000	–	–	–	–	–
O=C(N[C@H]1COC[C@@H]2CCCN2C1=O)c1nnc(Cc2ccccc2)[nH]1 [Example 27, 5-benzyl-N-((4S,9aS)-5-oxohexahydro-1H,3H-pyrrolo[2,1-c][1,4]oxazepin-4-yl)-4H-1,2,4-triazole-3-carboxamide]	> 10000	–	–	–	–	–
CN1C(=O)[C@@H](NC(=O)c2nnc(Cc3ccccc3)[nH]2)[C@H]2C[C@H]2c2ccccc21 [Example 46A, 5-benzyl-N-((2S)-4-methyl-3-oxo-1,1a,2,3,4,8b-hexahydrobenzo[b]cyclopropa[d]azepin-2-yl)-4H-1,2,4-triazole-3-carboxamide]	–	16	0.1 to 1000	16	–	–
CN1C(=O)[C@@H](NC(=O)c2nnc(Cc3ccccc3)[nH]2)[C@H]2C[C@H]2c2cccnc21 [Example 75A, 5-benzyl-N-((1aS,2S,8bR)-4-methyl-3-oxo-1,1a,2,3,4,8b-hexahydrocyclopropa[d]pyrido[2,3-b]azepin-2-yl)-4H-1,2,4-triazole-3-carboxamide]	–	9.1	–	–	91	93
O=C(N[C@@H]1C(=O)Nc2c(F)cc(F)cc2[C@@H]2C[C@H]12)c1nnc(Cc2ccccc2)[nH]1 [Example 83A, 5-benzyl-N-((1aS,2S,8bR)-5,7-difluoro-3-oxo-1,1a,2,3,4,8b-hexahydrobenzo[b]cyclopropa[d]azepin-2-yl)-4H-1,2,4-triazole-3-carboxamide]	–	1.0	–	–	–	82
C[C@H]1Oc2cccnc2N(C)C(=O)[C@H]1NC(=O)c1nn(Cc2ccccc2)cc1F [Example 92, 1-benzyl-N-((2R,3S)-2,5-dimethyl-4-oxo-2,3,4,5-tetrahydropyrido[3,2-b][1,4]oxazepin-3-yl)-4-fluoro-1H-pyrazole-3-carboxamide]	–	–	0.1 to 1000	–	420	–
C[C@H]1Oc2cccnc2N(C)C(=O)[C@H]1NC(=O)c1nnc(Cc2ccccc2)[nH]1 [Example 94, 5-benzyl-N-((2R,3S)-2,5-dimethyl-4-oxo-2,3,4,5-tetrahydropyrido[3,2-b][1,4]oxazepin-3-yl)-4H-1,2,4-triazole-3-carboxamide]	–	4.9	0.1 to 1000	–	44	40
CN1C(=O)[C@@H](NC(=O)c2nnc(Cc3ccccc3)[nH]2)[C@H]2C[C@H]2c2nccnc21 [Example 119B, 5-benzyl-N-((7S,7aS,8aR)-5-methyl-6-oxo-5,6,7,7a,8,8a-hexahydrocyclopropa[d]pyrazino[2,3-b]azepin-7-yl)-4H-1,2,4-triazole-3-carboxamide]	–	0	0.1 to 1000	18	20	26
C[C@H]1Oc2cccnc2N(C)C(=O)[C@H]1NC(=O)c1nnc(Cc2ccccc2)o1 [Example 134, 5-Benzyl-N-((2R,3S)-2,5-dimethyl-4-oxo-2,3,4,5-tetrahydropyrido[3,2-b][1,4]oxazepin-3-yl)-1,3,4-oxadiazole-2-carboxamide]	–	9.0	0.1 to 1000	–	100	140
CN1C(=O)[C@@H](NC(=O)c2nnc(Cc3ccccc3)o2)COc2cccnc21 [Example 146, (S)-5-benzyl-N-(5-methyl-4-oxo-2,3,4,5-tetrahydropyrido[3,2-b][1,4]oxazepin-3-yl)-1,3,4-oxadiazole-2-carboxamide]	–	4.2	0.1 to 1000	–	61	39
C[C@H]1Oc2cccnc2N(C)C(=O)[C@H]1NC(=O)c1ncn(Cc2cccc(C#N)c2)n1 [Example 172, 1-(3-cyanobenzyl)-N-((2R,3S)-2,5-dimethyl-4-oxo-2,3,4,5-tetrahydropyrido[3,2-b][1,4]oxazepin-3-yl)-1H-1,2,4-triazole-3-carboxamide]	–	5.3	0.1 to 1000	–	65	–
CN1C(=O)[C@@H](NC(=O)c2nnc(Cc3ccccc3)o2)[C@H]2C[C@H]2c2nccnc21 [Example 177A, 5-benzyl-N-((7S,7aS,8aR)-5-methyl-6-oxo-5,6,7,7a,8,8a-hexahydrocyclopropa[d]pyrazino[2,3-b]azepin-7-yl)-1,3,4-oxadiazole-2-carboxamide]	–	4.2	0.1 to 1000	1.4	55	58
[2H]C([2H])([2H])N1C(=O)[C@@H](NC(=O)c2nn(Cc3ccccc3)cc2F)[C@H]2C[C@H]2c2cc(S(C)(=O)=O)ccc21 [Example 183B, 1-benzyl-4-fluoro-N-((1aS,2S,8bR)-4-trideuteriomethyl-7-(methylsulfonyl)-3-oxo-1,1a,2,3,4,8b-hexahydrobenzo[b]cyclopropa[d]azepin-2-yl)-1H-pyrazole-3-carboxamide]	–	5.3	0.1 to 1000	36	–	–
